Data set [1] concerns PC-3. Kind of data set: Synergistic cytotoxicity against docetaxel-resistant human PC-3 cells assessed as reduction in cell viability at 12.5 to 100 uM incubated for 48 hrs in the presence of docetaxel by MTT assay. In kind it is functional, cell-based. The settings on record: dose 12.5-100 µM. In general terms: Formazan colour is commonly taken as a measure of viable cells.

For data set [2], the target named is ATP-dependent translocase ABCB1 (Homo sapiens, UniProt P08183). Kind of data set: Inhibition of p-glycoprotein in docetaxel-resistant human PC-3 cells assessed as inhibition of calcein excretion at 0.39 to 50 uM incubated for 30 mins by fluorescence based plate reader analysis. In kind it is cell-based. As to conditions: pc-3, 0.5 h, dose 0.39-50 µM.
ATP-dependent translocase ABCB1, sequence (P08183 whole entry): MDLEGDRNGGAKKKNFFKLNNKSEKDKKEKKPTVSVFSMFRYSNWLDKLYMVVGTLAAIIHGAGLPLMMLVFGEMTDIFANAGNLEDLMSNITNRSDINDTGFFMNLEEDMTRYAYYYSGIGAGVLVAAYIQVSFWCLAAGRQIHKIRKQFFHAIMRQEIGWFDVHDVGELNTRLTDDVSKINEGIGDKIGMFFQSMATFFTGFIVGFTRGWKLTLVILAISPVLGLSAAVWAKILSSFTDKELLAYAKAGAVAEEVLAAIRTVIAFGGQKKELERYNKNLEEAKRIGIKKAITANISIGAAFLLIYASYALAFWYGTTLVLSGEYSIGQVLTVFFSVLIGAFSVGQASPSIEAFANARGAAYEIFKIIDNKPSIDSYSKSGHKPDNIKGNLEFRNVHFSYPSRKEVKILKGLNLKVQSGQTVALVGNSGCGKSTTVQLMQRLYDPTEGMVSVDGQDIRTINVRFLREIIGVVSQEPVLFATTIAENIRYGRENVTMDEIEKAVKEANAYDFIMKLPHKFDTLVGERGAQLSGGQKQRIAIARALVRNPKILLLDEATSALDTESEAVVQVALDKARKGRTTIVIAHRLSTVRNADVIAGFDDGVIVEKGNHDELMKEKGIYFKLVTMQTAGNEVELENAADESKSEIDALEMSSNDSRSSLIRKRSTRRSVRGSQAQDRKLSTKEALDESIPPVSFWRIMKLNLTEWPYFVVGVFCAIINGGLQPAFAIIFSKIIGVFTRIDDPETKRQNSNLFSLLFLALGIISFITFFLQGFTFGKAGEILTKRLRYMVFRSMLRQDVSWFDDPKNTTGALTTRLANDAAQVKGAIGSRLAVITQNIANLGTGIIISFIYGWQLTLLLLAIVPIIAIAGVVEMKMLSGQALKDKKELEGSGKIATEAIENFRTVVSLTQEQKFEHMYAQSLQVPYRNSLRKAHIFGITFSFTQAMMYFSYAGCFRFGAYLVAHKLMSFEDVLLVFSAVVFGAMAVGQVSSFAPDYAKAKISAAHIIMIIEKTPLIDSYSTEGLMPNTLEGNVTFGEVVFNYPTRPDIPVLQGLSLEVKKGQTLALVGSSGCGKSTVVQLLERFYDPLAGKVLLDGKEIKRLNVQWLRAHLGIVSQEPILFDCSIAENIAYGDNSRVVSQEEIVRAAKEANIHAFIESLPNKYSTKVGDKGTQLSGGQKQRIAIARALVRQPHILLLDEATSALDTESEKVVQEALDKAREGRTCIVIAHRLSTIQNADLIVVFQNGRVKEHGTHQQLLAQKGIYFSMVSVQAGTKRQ
The next data set concerns RWPE-1. Kind of data set: Cytotoxicity against human RWPE-1 cells assessed as reduction in cell viability at <= 100 uM incubated for 48 hrs by MTT assay. As to conditions: rwpe-1, 48 h. Format: toxicity, cell-based.
The test system of a further data set is PNT2. Kind of data set: Cytotoxicity against human PNT2 cells assessed as reduction in cell viability at <= 100 uM incubated for 48 hrs by MTT assay. In kind it is toxicity, cell-based. As to conditions: pnt2, 48 h.
Data set [3] concerns PC-3. Kind of data set: Cytotoxicity against docetaxel-resistant human PC-3 cells assessed as reduction in cell viability at 0.5 to 64 uM pretreated with tariquidar for 1 hrs followed by compound addition and measured after 48 hrs by MTT assay. In kind it is functional, cell-based. As to conditions: dose 0.5-64 µM.

The structures appear in SMILES notation. Calls of active or inactive are those of the source. The calls are words filed in the database; no cut-off is given here.

As for `C=C1C=C2[C@]34CC[C@H](OC(C)=O)C(C)(C)[C@H]3[C@H](C[C@]2(C)[C@]2(C(=O)OC)C(=O)[C@](C)(O)C(=O)[C@]12C)OC4=O`, in the data set on PC-3 [1], the result was Active. Moreover, in data set [2], the “inhibition (INH)” value is reported as “Active”. The Activity entry with RWPE-1 and with PNT2 was “Non-Toxic” throughout.
With `CC(=O)O[C@@]12CO[C@@H]1C[C@H](O)[C@@]1(C)C(=O)[C@H](O)C3=C(C)[C@@H](OC(=O)[C@H](O)[C@@H](NC(=O)OC(C)(C)C)c4ccccc4)C[C@@](O)([C@@H](OC(=O)c4ccccc4)[C@H]21)C3(C)C`, in the data set with PC-3 [3], the outcome was Active.
In the case of `COC(=O)[C@@]12C(=O)C(=O)O[C@@]3(C=C1C)[C@]2(C)C[C@@H]1OC(=O)[C@]32CC[C@H](OC(C)=O)C(C)(C)[C@@H]12`, in the data set with PC-3 [1], the result was Active. Moreover, the “inhibition (INH)” value in data set [2] is given as “Active”. Besides, the Activity result in the data set with RWPE-1 and in the data set on PNT2 was “Non-Toxic” in each case.
For `COC(=O)[C@@]1(C(=O)C(C)=O)C(C)=C(C)C=C2[C@]34CC[C@H](OC(C)=O)C(C)(C)[C@H]3[C@H](C[C@@]21C)OC4=O`, the result in the data set on PC-3 [1] was Active. Moreover, the “inhibition (INH)” value in data set [2] is “Active”. Further, the Activity result in the data set with RWPE-1 and in the data set on PNT2 was “Non-Toxic” each time.
Regarding `COC(=O)[C@H]1C(=O)O[C@]2(/C=C(\C)C(C)=O)[C@]34CC[C@H](OC(C)=O)C(C)(C)[C@H]3[C@H](C[C@]12C)OC4=O`, the outcome with PC-3 [1] was Active. Moreover, the “inhibition (INH)” value in data set [2] was “Active”. Also, the Activity result in the data set on RWPE-1 and with PNT2 was “Non-Toxic” in each case.

The values above are taken from ChEMBL document CHEMBL5215004, “Meroantarctines A-C, Meroterpenoids with Rearranged Skeletons from the Alga-Derived Fungus Penicillium antarcticum KMM 4685 with Potent p-Glycoprotein Inhibitory Activity” (J Nat Prod, 2022).
